Reference: patent US12643889B2, “Synthesis of novel EP4 antagonist and use in cancer and inflammation” (Wuhan Humanwell Innovative Drug Research And Development …, priority 2020, dated 2026)

What was measured:
[1] = target: T1, recombinant human EP4 receptor membrane protein (Homo sapiens, UniProt P35408); assay: Radioligand binding assay for EP4 receptor ([3H]-PGE2); settings: [3H]-PGE2 1.5 nM; membrane protein 20 μg/well
T1 construct: expressed in transfected cells; host or cells: membranes of 293 cells overexpressing human EP4 receptor
Method: The compounds to be tested and PGE2 were formulated as 10 mM stocks in a DMSO solvent, and then 8 concentration points of 4× working solution were serially diluted using a buffer (50 mM HBSS, 0.1% BSA, 500 mM NaCl). […] Unifilter-96 GF/C filter plate (Perkin Elmer) was soaked with 0.5% BSA, 50 μL per well, for at least 30 min at room temperature. After binding was complete, the reaction mixture was harvested through a GF/C plate using a Perkin Elmer Filtermate Harvester, followed by washing the filter plate and drying the filter plate for 1 hour at 50° C. After drying, the bottom of the filter plate wells was sealed using a Perkin Elmer Unifilter-96 sealing tape, and 50 μL of MicroScint™-20 cocktail (Perkin Elmer) was added to seal the top of the filter plate. The ^3H counts captured on the filter were read using a Perkin Elmer MicroBeta2 Reader.
The IC50 and Ki values of the compounds determined by the radioligand binding assay for EP4 receptor were calculated based on the inhibition rate of the different concentrations of the compounds.

[2] = target: T2, human EP4 receptor (Homo sapiens, UniProt P35408); assay: Assay of calcium current inhibition on EP4 receptor (FLIPR, 293 cells); assay type: cell-based; set-up: expressed in transfected cells; host or cells: 293 cells; settings: for IC50: 293 cells overexpressing human EP4, PGE2 at EC80, FLIPR
Method: The cells were rapidly thawed in a 37° C. water bath, centrifuged, resuspended, and counted. The cell suspensions were seeded at 20 μL/well in two 384-well plates (20,000 cells/well) and placed in an incubator (a 37° C., 5% CO2) overnight. Preparation of a 2× Fluo-4 Direct™ (Invitrogen, Cat #F10471) loading buffer: 77 mg of probenecid was added to 1 mL of a FLIPR buffer, with a concentration of 250 mM. 10 mL of FLIPR buffer and 0.2 mL of probenecid (250 mM) were added to each tube of Fluo-4 Direct™ crystals (F10471).
One of the cell plates was taken out of the incubator and the medium was removed. 20 μL of an assay buffer and 2× Fluo-4 Direct™ non-wash loading buffer were added to the 384-well cell culture plate to a final volume of 40 μL, and then the culture plate was incubated in an incubator (a 37° C., 5% CO2) for 50 minutes, and then at room temperature for 10 minutes, and then the plate was placed in the FLIPR. 10 μL of the buffer was transferred to the cell plate and the fluorescence signal was read. The agonist PGE2 was formulated as a 10 mM stock in a DMSO solvent and 10 concentration points of the 6× working solution were serially diluted using the buffer. 10 μL of the agonist PGE2 was transferred to the cell plate, the fluorescence signal was read to calculate EC80 value.
The agonist PGE2 was prepared at 6× EC80 concentration and the compound to be tested was formulated as a 10 mM stock solution in the DMSO solvent and 10 concentration points of the 6× compound working solution was serially diluted using the buffer.
Another cell plate was taken to remove media and 20 μL of the assay buffer and 2× Fluo-4 Direct™ non-wash loading buffer were added; the cell plate was incubated in a 37° C., 5% CO2 incubator for 50 minutes and room temperature for 10 minutes and then placed in the FLIPR. 10 μL of the compound working solution, DMSO, and the EP4 full antagonist were transferred to the cell plate and the fluorescence signal was read. […] Inhibition (%)=100−(test group−EP4 full antagonist group)/(DMSO group−EP4 full antagonist group)*100
Compound's IC50 value of EP4 calcium current inhibition was calculated based on the inhibition rate at different concentrations of the compound.

[3] = target: T2, human EP4 receptor; assay: Assay for EP4 antagonistic effect (cAMP, PGE2-stimulated CHO stable cell line)
Method: After trypsinization, cells were resuspended in a buffer (1×HBSS, 0.1% BSA, 20 mM HEPES, and 500 μM IBMX) and 8000 cells were seeded per well in 384-well plates in a seeding volume of 15 μL. A working solution the compound with a 8× concentration was prepared with an experimental buffer, and then 2.5 μL of the working solution of the compound with 8× concentration was added to the 384-well plate, respectively, and incubated at 37° C. for 30 min. An agonist PGE2 working solution with 8× concentration of (4 nM) was prepared with the experimental buffer and 2.5 μL per well was added to the 384-well plate (the final PGE2 concentration was 0.5 nM) and incubated at 37° C. for 30 min. After the reaction was completed, the amount of cAMP in the cells was quantified according to the method in the instructions of the cAMP test kit (Perkin Elmer, Cat #TRF0263). The antagonistic effects (IC50 value) were calculated for the test compounds.

[4] = Rat pharmacokinetic assay; assay type: in vivo, male SD rats; settings: male, SD, plasma, rat, intravenous administration 1 mg/kg
Method: (§1) In a mouse pharmacokinetic assay, male ICR mice (20 g to 25 g) were selected and fasted overnight. Three mice were selected and intragastrically administered with 5 mg/kg of the corresponding compound. The blood of the mice was collected before the administration and at 15 min, 30 min, 1 h, 2 h, 4 h, 8 h, 24 h after the administration. Another 3 mice were intravenously administered with 1 mg/kg of the corresponding compound, and the blood thereof was collected before the administration and at 15 min, 30 min, 1 h, 2 h, 4 h, 8 h, 24 h after the administration. The blood samples were centrifuged at 6800 g at 2° C. to 8° C. for 6 minutes, and plasma was collected and stored at −80° C. The plasma was taken at respective time point, mixed with 3-5 times the amount of acetonitrile containing internal standard, vortexed for 1 minute, centrifuged at 4° C. for 10 minutes at 13000 rpm, supernatant was added 3 times the amount of water, and the appropriate mixture was taken for LC-MS/MS analysis. The primary pharmacokinetic parameters were analyzed with a WinNonlin 7.0 software, with non-compartmental model.
In a rat pharmacokinetic assay, male SD rats (180 g to 240 g) were selected and fasted overnight. Three rats were intragastrically administered with 5 mg/kg of the corresponding compound. Another 3 rats were intravenously administered with 1 mg/kg of the corresponding compound. The following operations were the same as the mouse pharmacokinetic assay.

[5] = Mouse pharmacokinetic assay; assay type: in vivo, male ICR mice; settings: male, ICR, plasma, oral gavage administration 5 mg/kg
Method: as §1

T2 sequence (P35408 whole entry): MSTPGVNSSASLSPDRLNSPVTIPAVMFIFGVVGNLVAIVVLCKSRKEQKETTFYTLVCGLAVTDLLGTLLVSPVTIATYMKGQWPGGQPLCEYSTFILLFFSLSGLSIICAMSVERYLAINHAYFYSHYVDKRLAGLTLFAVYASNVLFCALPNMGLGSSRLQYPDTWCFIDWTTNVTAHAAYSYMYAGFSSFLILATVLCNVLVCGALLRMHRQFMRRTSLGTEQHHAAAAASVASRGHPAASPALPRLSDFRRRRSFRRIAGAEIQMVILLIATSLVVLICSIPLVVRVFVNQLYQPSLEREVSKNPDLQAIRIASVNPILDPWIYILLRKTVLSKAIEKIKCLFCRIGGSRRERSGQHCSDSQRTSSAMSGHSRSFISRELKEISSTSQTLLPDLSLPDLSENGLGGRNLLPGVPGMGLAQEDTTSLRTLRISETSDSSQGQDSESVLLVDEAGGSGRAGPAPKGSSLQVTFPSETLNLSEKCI
T1 sequence (P35408 whole entry): as above

Row | IC50 [1] [nM] | Ki [1] [nM] | IC50 [2] [nM] | other results | SMILES
1 | 9 | 4.9 | 3 | IC50 [3]: 2.8 nM | C[C@H](NC(=O)c1c(C(F)F)nn(C)c1Oc1cccc(C2CC2)c1)c1ccc(C(=O)O)cc1 [Compound I-3, (S)-4-(1-(5-(3-cyclopropylphenoxy)-3-(difluoromethyl)-1-methyl-1H-pyrazole-4-carboxamido)ethyl)benzoic Acid]
2 | – | – | – | IC50 [3]: 29 nM | CCc1cccc(Oc2c(C(=O)N[C@@H](C)c3ccc(C(=O)O)cc3)c(C)nn2C)c1 [Compound I-9, (S)-4-(1-(5-(3-ethylphenoxy)-1,3-dimethyl-1H-pyrazole-4-carboxamido)ethyl) benzoic Acid]
3 | 7.4 | 4 | 4 | increase of inhibition effect on the calcium current of EP4 compared with the control compound ([2]; compared with the control compound): more than 5 time | CC(C)c1cccc(Oc2c(C(=O)N[C@@H](C)c3ccc(C(=O)O)cc3)c(C(F)F)nn2C)c1 [Compound I-4, (S)-4-(1-(3-(difluoromethyl)-5-(3-isopropylphenoxy)-1-methyl-1H-pyrazole-4-carboxamido)ethyl)benzoic Acid]
4 | – | – | 16 | – | Cc1cc(Oc2c(C(=O)N[C@@H](C)c3ccc(C(=O)O)cc3)c(C(F)F)nn2C)cs1 [Compound I-41, (S)-4-(1-(3-(difluoromethyl)-1-methyl-5-((5-methylthiophen-3-yl)oxy)-1H-pyrazole-4-carboxamido)ethyl)benzoic Acid]
5 | – | – | 8 | IC50 [3]: 5.7 nM | C[C@H](NC(=O)c1c(C(F)F)nn(C)c1Oc1cccc(S(F)(F)(F)(F)F)c1)c1ccc(C(=O)O)cc1 [Compound I-28, (S)-4-(1-(3-(difluoromethyl)-1-methyl-5-(3-(pentafluoro-λ^6-sulfanyl)phenoxy)-1H-pyrazole-4-carboxamido)ethyl)benzoic Acid]
6 | 13 | 7 | – | – | CC(O)c1cc(Oc2c(C(=O)N[C@@H](C)c3ccc(C(=O)O)cc3)c(C(F)F)nn2C)ccc1F (stereo partly drawn) [Compound I-23, 4-((1S)-1-(3-(difluoromethyl)-5-(4-fluoro-3-(1-hydroxyethyl)phenoxy)-1-methyl-1H-pyrazole-4-carboxamido)ethyl)benzoic Acid]
7 | – | – | 18 | – | CCc1cc(Oc2c(C(=O)N[C@@H](C)c3ccc(C(=O)O)cc3)c(C(F)F)nn2C)ccc1C [Compound I-17, (S)-4-(1-(3-(difluoromethyl)-5-(3-ethyl-4-methylphenoxy)-1-methyl-1H-pyrazole-4-carboxamido)ethyl)benzoic Acid]
8 | – | – | 10 | – | CC(F)c1cccc(Oc2c(C(=O)N[C@@H](C)c3ccc(C(=O)O)cc3)c(C(F)F)nn2C)c1 (stereo partly drawn) [Compound I-13, 4-((1S)-1-(3-(difluoromethyl)-5-(3-(1-fluoroethyl)phenoxy)-1-methyl-1H-pyrazole-4-carboxamido)ethyl)benzoic Acid]
9 | – | – | 8.5 | – | C[C@H](NC(=O)c1c(C(F)F)nn(C)c1Oc1ccc(-c2ccccc2)cc1)c1ccc(C(=O)O)cc1 [Compound I-26, (S)-4-(1-(5-([1,1′-biphenyl]-4-yloxy)-3-(difluoromethyl)-1-methyl-1H-pyrazole-4-carboxamido)ethyl)benzoic Acid]
10 | 6.8 | 3.7 | 8 | – | CCc1cc(Oc2c(C(=O)N[C@@H](C)c3ccc(C(=O)O)cc3)c(C(F)F)nn2C)ccc1Cl [Compound I-11, (S)-4-(1-(5-(4-chloro-3-ethylphenoxy)-3-(difluoromethyl)-1-methyl-1H-pyrazole-4-carboxamido)ethyl)benzoic Acid]
11 | 12 | 6.6 | 18 | – | CC(c1cccc(Oc2c(C(=O)N[C@@H](C)c3ccc(C(=O)O)cc3)c(C(F)F)nn2C)c1)C(F)(F)F (stereo partly drawn) [Compound I-15, 4-((1S)-1-(3-(difluoromethyl)-1-methyl-5-(3-(1,1,1-trifluoropropan-2-yl)phenoxy)-1H-pyrazole-4-carboxamido)ethyl)benzoic Acid]
12 | 12 | 6.6 | 15 | IC50 [3]: 12 nM | CSc1cccc(Oc2c(C(=O)N[C@@H](C)c3ccc(C(=O)O)cc3)c(C(F)F)nn2C)c1 [Compound I-30, (S)-4-(1-(3-(difluoromethyl)-1-methyl-5-(3-(methylthio)phenoxy)-1H-pyrazole-4-carboxamido)ethyl)benzoic Acid]
13 | – | – | – | IC50 [3]: 14 nM | C[C@H](NC(=O)c1c(C(F)F)nn(C)c1Oc1cccc(SC(F)(F)F)c1)c1ccc(C(=O)O)cc1 [Compound I-29, (S)-4-(1-(3-(difluoromethyl)-1-methyl-5-(3-((trifluoromethyl)thio)phenoxy)-1H-pyrazole-4-carboxamido)ethyl)benzoic Acid]
14 | 4 | 2.2 | 14 | – | C[C@H](NC(=O)c1c(C(F)F)nn(C)c1Oc1ccc(F)c(C(C)(F)F)c1)c1ccc(C(=O)O)cc1 [Compound I-10, (S)-4-(1-(5-(3-(1,1-difluoroethyl)-4-fluorophenoxy)-3-(difluoromethyl)-1-methyl-1H-pyrazole-4-carboxamido)ethyl)benzoic Acid]
15 | 31 | 17 | 12 | AUC(0-t) [4]: 4670 ng·h/mL; clearance [4]: 3.67 mL/min/kg; half-life [4]: 9.02 h; Vd ([4]; read-out: Vz): 2.72 L/kg; AUC(0-t) [5]: 8290 ng·h/mL; Cmax [5]: 2530 ng/mL; Tmax [5]: 0.33 h; half-life [5]: 8.22 h | C[C@H](NC(=O)c1c(C(F)F)nn(C)c1Oc1cccc(OCC(F)(F)F)c1)c1ccc(C(=O)O)cc1 [Compound I-33, (S)-4-(1-(3-(difluoromethyl)-1-methyl-5-(3-(2,2,2-trifluoroethoxy)phenoxy)-1H-pyrazole-4-carboxamido)ethyl)benzoic Acid]
16 | – | – | 16.5 | – | Cc1nn(C)c(Oc2cccc(C(C)(F)F)c2)c1C(=O)N[C@@H](C)c1ccc(C(=O)O)cc1 [Compound I-8, (S)-4-(1-(5-(3-(1,1-difluoroethyl)phenoxy)-1,3-dimethyl-1H-pyrazole-4-carboxamido)ethyl)benzoic Acid]
17 | – | – | 19 | – | CCc1cc(F)cc(Oc2c(C(=O)N[C@@H](C)c3ccc(C(=O)O)cc3)c(C(F)F)nn2C)c1 [Compound I-12, (S)-4-(1-(3-(difluoromethyl)-5-(3-ethyl-5-fluorophenoxy)-1-methyl-1H-pyrazole-4-carboxamido)ethyl)benzoic Acid]
